The text below walks through data of patent publication US20100249017A1, “USE OF CNP-22, ALONE OR IN COMBINATION WITH PHYSALEMIN, AS A THERAPEUTIC AGENT” (priority 2007, published 2010).

For one assay, the system named is HCMV strain AD169. The assay is described as follows: HCMV plaque formation assay in MRC-5 cells. Conditions: 10 micrograms per ml, 7-10 days.
For another assay, the system named is RAW 264.7 cells. The assay is described as follows: Phagocytosis assay. Conditions: 10 micrograms per ml, Fluorescein-labeled Escherichia coli.
For assay [1], the system named is spleen cells of Ovalbumin-immunized Balb/c mice. The assay is described as follows: Th1/Th2 cytokine profiling assay. Conditions: 10 micrograms per ml; Ovalbumin restimulation; 72 hours. It is filed as cell-based, mouse.
Text: The Balb/c mice (originated in 1923, it is a popular strain and is used in many different research disciplines. Also classified as an inbred from the production of 20 or more successive brother-sister matings, the Balb/c mouse is albino and small in size) were immunized on Days 1, 15, and 29 with Ovalbumin (Ovalbumin is the main protein found in egg white, commonly used to stimulate an immunological reaction in test animals) in PBS (5 micrograms/injection). On day 50, spleens of the mice were harvested (3 weeks after last boost with Ovalbumin). Cells were cultured (2×10^5/well in triplicate) and incubated with culture medium or test peptides—10 micrograms per ml—for 30 min. Thereafter, additional Ovalbumin was added to the cells at 10 micrograms/ml for in vitro restimulation of the cells. 72 hours later, cell supernatants were harvested and assayed using the Becton Dickinson Mouse Th1/Th2 Cytokine CBA Kit.
The subject of assay [2] is hepatitis B virus (HBV) ayw strain. Put plainly: HBV experimental assay system, secreted HBV DNA by TaqMan PCR. Conditions: 10 micrograms per ml; HepG2-2.2.15 cells; six days. It is filed as cell-based.
A further assay relates to HUVEC. Put plainly: Endothelial tube formation assay. It is filed as cell-based, human. Conditions: 10 micrograms per ml, 20 hours. The text has this: Positive control was vehicle only. […] Raw data were expressed as average tubule lenghs in pixels±standard deviation.
The subject of assay [3] is Primary Human endothelial cells (HUVEC). The assay is described as follows: Endothelial cell migration assay. It is filed as cell-based. Conditions: 10 micrograms per ml, 22 hours. As to the method: Thereafter, designated concentration of testing peptides—10 micrograms per ml—was added in duplicate wells.

Square brackets hold non-standard residues; d marks the D form. Ends that are not written are not given here. pGlu = O=C1CC[C@@H](C(=O)O)N1

Text for HCMV strain AD169: Cells were split twic a week 1:2.
Ganciclovir was used as positive control.

Take “Gly-Leu-Ser-Lys-Gly-Cys-Phe-Gly-Leu-Lys-Leu-Asp-Arg-Ile-Gly-Ser-Met-Ser-Gly-Leu-Gly-Cys-OH (GLSKGCFGLKLDRIGSMSGLGC-OH; cysteine pairing not given here) [peptide 1]”: the “inhibition of HCMV plaque formation as compared to the virus control experiment” value in the assay with HCMV strain AD169 is “did not show any inhibition”. The “induction of phagocytosis as compared to the virus control experiment” value in the assay on RAW 264.7 cells amounted to 42.9%. In assay [1], the “IFNγ spleen cells; TH1 response (% of control)” value is recorded as 140.2 % of control, the “IL-2 spleen cells (% of control)” value is given as 52.2 % of control, the “IL-4 spleen cells; TH2 response (% of control)” value is 0.0 % of control and the “IL-5 spleen cells; TH2 response (% of control)” value is on record as 56.3 % of control. The “TNF-a spleen cells; TH1 response (% of control)” value in assay [1] is reported as 111.8 % of control. In addition, the “inhibition of HBV replication as compared to the virus control infection” value in assay [2] is recorded as 10.1%. Moreover, the “inhibition of the tube formation of human endothelial cells” value with HUVEC came to 22%.

“Pyr-Ala-Asp-Pro-Asn-Lys-Phe-Tyr-Gly-Leu-Met-NH2 ([pGlu]ADPNKFYGLM-NH2; SMILES CSCC[C@H](NC(=O)[C@H](CC(C)C)NC(=O)CNC(=O)[C@H](Cc1ccc(O)cc1)NC(=O)[C@H](Cc1ccccc1)NC(=O)[C@H](CCCCN)NC(=O)[C@H](CC(N)=O)NC(=O)[C@@H]1CCCN1C(=O)[C@H](CC(=O)O)NC(=O)[C@H](C)NC(=O)[C@@H]1CCC(=O)N1)C(N)=O) [peptide 2]”: in the assay on HCMV strain AD169, the “inhibition of HCMV plaque formation as compared to the virus control experiment” value is recorded as “did not show any inhibition”. Further, the “induction of phagocytosis as compared to the virus control experiment” value with RAW 264.7 cells is on record as “did not induce phagocytosis”. In assay [1], the “IFNγ spleen cells; TH1 response (% of control)” value was 74.2 % of control, the “IL-2 spleen cells (% of control)” value is 0.0 % of control, the “IL-4 spleen cells; TH2 response (% of control)” value is recorded as 0.0 % of control and the “IL-5 spleen cells; TH2 response (% of control)” value is 53.0 % of control. Moreover, the “TNF-a spleen cells; TH1 response (% of control)” value in assay [1] was 85.7 % of control. Also, the “induction of the migration of human endothelial cells” value in assay [3] came to 15%. Moreover, in assay [2], the “inhibition of HBV replication as compared to the virus control infection” value is reported as “no effect”. For the same substance, the “inhibition of the tube formation of human endothelial cells” value in the assay on HUVEC amounted to 6%.
